US8410177B2, “Curcumin derivatives” (Indian Institute of Technology Bombay, priority 2009, dated 2013)

| melting point [°C] | SMILES |
| --- | --- |
| 200 to 202 | COc1ccc(/C=C/C(=O)C2C(=O)CC(c3ccc(OC)cc3)[C@H]([N+](=O)[O-])C2c2ccc(OC)cc2)cc1 (some centres unmarked) [IX-1, 3,5-Bis(4-Methoxyphenyl)-2-((E)-3-(4-Methoxyphenyl)acryloyl)-4-Nitrocyclohexanone] |
| 126 to 128 | COc1ccc(/C=C/C(=O)C2C(=O)C[C@H](c3ccc(OC)cc3)[C@H]([N+](=O)[O-])[C@H]2c2ccc(OC)c(OC)c2)cc1 (some centres unmarked) [IX-2, 3-(3,4-Dimethoxyphenyl)-5-(4-Methoxyphenyl)-2-((E)-3-(4-Methoxyphenyl)acryloyl)-4-Nitrocyclohexanone] |
| 164 to 165 | COc1ccc(/C=C/C(=O)C2C(=O)C[C@H](c3ccc(OC)cc3)[C@H]([N+](=O)[O-])[C@H]2c2ccccc2)cc1 (some centres unmarked) [IX-3, 5-(4-Methoxyphenyl)-2-((E)-3-(4-Methoxyphenyl)acryloyl)-4-Nitro-3-Phenylcyclohexanone] |
| 156 to 158 | COc1ccc(/C=C/C(=O)C2C(=O)C[C@H](c3ccc(OC)cc3)[C@H]([N+](=O)[O-])C2c2ccc(Cl)cc2)cc1 (some centres unmarked) [IX-4, 3-(4-Chlorophenyl)-5-(4-Methoxyphenyl)-2-((E)-3-(4-Methoxyphenyl)acryloyl)-4-Nitrocyclohexanone] |
| 160 to 162 | COc1ccc(/C=C/C(=O)C2C(=O)C[C@H](c3ccc(OC)cc3)[C@H]([N+](=O)[O-])[C@H]2c2cccs2)cc1 (some centres unmarked) [IX-5, 5-(4-Methoxyphenyl)-2-((E)-3-(4-Methoxyphenyl)acryloyl)-4-Nitro-3-(Thiophen-2-yl)cyclohexanone] |
| 154 to 156 | COc1ccc(/C=C/C(=O)C2C(=O)C[C@H](c3ccc(OC)cc3)[C@H]([N+](=O)[O-])[C@H]2c2ccc3c(c2)OCO3)cc1 (some centres unmarked) [IX-6, 3-(Benzo[a][1,3]dioxol-5-yl)-5-(4-Methoxyphenyl)-2-((E)-3-(4-Methoxyphenyl)acryloyl)-4-Nitrocyclohexanone] |
| 192 | COc1ccc(/C=C/C(=O)C2C(=O)C[C@H](c3ccc(OC)cc3)[C@H]([N+](=O)[O-])[C@H]2c2ccco2)cc1 (some centres unmarked) [IX-7, 3-(Furan-2-yl)-5-(4-Methoxyphenyl)-2-((E)-3-(4-Methoxyphenyl)acryloyl)-4-Nitrocyclohexanone] |
| 88 to 90 | COc1ccc(/C=C/C(=O)C2C(=O)C[C@H](c3ccc(OC)cc3)[C@H]([N+](=O)[O-])[C@H]2/C=C/c2ccccc2)cc1 (some centres unmarked) [IX-9, 5-(4-Methoxyphenyl)-2-((E)-3-(4-Methoxyphenyl)acryloyl)-4-nitro-3-styrylcyclohexanone] |
| 158 to 160 | COc1ccc(C2C(C(=O)/C=C/c3ccc(OC)c(OC)c3)C(=O)C[C@H](c3ccc(OC)c(OC)c3)[C@@H]2[N+](=O)[O-])cc1 (some centres unmarked) [IX-10, 5-(3,4-dimethoxyphenyl)-3-(4-methoxyphenyl)-2-((E)-3-(3,4-dimethoxyphenyl)acryloyl)-4-Nitrocyclohexanone] |
| 83 to 85 | COc1ccc([C@H]2C(C(=O)/C=C/c3ccc(O)c(OC)c3)C(=O)C[C@H](c3ccc(O)c(OC)c3)[C@@H]2[N+](=O)[O-])cc1 (some centres unmarked) [IX-11, 5-(4-hydroxy-3-methoxyphenyl)-2-((E)-3-(4-hydroxy-3-methoxyphenyl)acryloyl)-3-(4-methoxyphenyl)-4-nitrocyclohexanone] |
| 108 to 110 | COc1ccc([C@H]2C(C(=O)/C=C/c3ccccc3)C(=O)C[C@H](c3ccccc3)[C@@H]2[N+](=O)[O-])cc1 (some centres unmarked) [IX-12, 3-(4-methoxyphenyl)-4-nitro-5-phenyl-2-((E)-3-phenylacryloyl)cyclohexanone] |
| 203 to 205 | COc1ccc(/C=C/C(=O)C2C(=O)C[C@H](c3ccc(OC)cc3)[C@H]([N+](=O)[O-])[C@H]2C2CCCCC2)cc1 (some centres unmarked) [IX-14, 3-cyclohexyl-5-(4-methoxyphenyl)-2-((E)-3-(4-methoxyphenyl)acryloyl)-4-nitrocyclohexanone] |
| 127 to 129 | CCCC[C@H]1C(C(=O)/C=C/c2ccc(OC)cc2)C(=O)C[C@H](c2ccc(OC)cc2)[C@@H]1[N+](=O)[O-] (some centres unmarked) [IX-15, 3-butyl-5-(4-methoxyphenyl)-2-((E)-3-(4-methoxyphenyl)acryloyl)-4-nitrocyclohexanone] |
| 76 to 78 | COc1ccc([C@H]2C(C(=O)/C=C/c3ccc(OCc4ccccc4)c(OC)c3)C(=O)C[C@H](c3ccc(OCc4ccccc4)cc3)[C@@H]2[N+](=O)[O-])cc1 (some centres unmarked) [IX-16, 2-((E)-3-(4-(benzyloxy)-3-methoxyphenyl)acryloyl)-5-(4-(benzyloxy)phenyl)-3-(4-methoxyphenyl)-4-nitrocyclohexanone] |
